How the values were obtained:
[1] = system: MDR1; test: Permeability from basolateral to apical side of MDCK cells over expressing MDR1; type: ADME, cell-based, Canis lupus familiaris; settings: dog
[2] = Ratio of drug level from CSF to plasma in Beagle dog; type: ADME, Canis lupus familiaris
[3] = biological target: Sodium-dependent serotonin transporter (Homo sapiens, UniProt P31645); test: biochemical
Description: Displacement of [3H]5HT from human 5HT transporter expressed in HEK293 cells by scintillation counting

[4] = biological target: Sodium-dependent noradrenaline transporter (Homo sapiens, UniProt P23975); test: biochemical
Description: Displacement of [3H]noradrenaline from human NET receptor expressed in HEK293 cells by scintillation counting

[5] = in vitro; settings: human, liver microsomes
Description: Intrinsic clearance in human liver microsomes

[6] = biological target: Sodium-dependent dopamine transporter (Homo sapiens, UniProt Q01959); test: biochemical
Description: Displacement of [3H]dopamine from human DAT receptor expressed in HEK293 cells by scintillation counting

[7] = system: MDR1; test: Permeability from apical to basolateral side of MDCK cells over expressing MDR1; type: ADME, cell-based, Canis lupus familiaris; settings: dog
[8] = system: MDR1; test: in vitro; settings: dog, MDCK-MDR1
Description: Efflux ratio of permeability from apical to basolateral over basolateral to apical side in MDCK cells over expressing MDR1

[9] = biological target: Voltage-gated inwardly rectifying potassium channel KCNH2 (Homo sapiens, UniProt Q12809)
[10] = biological target: T1, Cytochrome P450 3A4 (Homo sapiens, UniProt P08684); test: Inhibition of CYP3A4 using testosterone as a substrate; type: ADME
[11] = species: Canis familiaris; test: Toxicity in Beagle dog after 14 days; type: organism-based, Canis lupus familiaris; settings: in vivo, 336 h
[12] = biological target: Kappa-type opioid receptor (Homo sapiens, UniProt P41145); test: Binding affinity to kappa opioid receptor
[13] = Dissociation constant, pKa of the compound; type: physicochemical
[14] = biological target: T1, Cytochrome P450 3A4; test: Inhibition of CYP3A4 using midazolam as a substrate; type: ADME
[15] = biological target: T1, Cytochrome P450 3A4; test: Inhibition of CYP3A4 using felodipine as a substrate; type: ADME
[16] = species: Canis familiaris; test: Increase in peak urethral pressure in Beagle dog; type: functional, Canis lupus familiaris, Urethra
[17] = biological target: Cytochrome P450 2C9 (Homo sapiens, UniProt P11712); test: Inhibition of CYP2C9; type: ADME
[18] = Apparent permeability from basolateral to apical side of human Caco-2 cells at 10 uM; type: ADME, cell-based
[19] = Intrinsic clearance in human hepatocytes measured per million cells; type: ADME, cell-based, Liver, Hepatocyte
[20] = biological target: T2, Cytochrome P450 1A2 (Homo sapiens, UniProt P05177); test: Inhibition of CYP1A2; type: ADME
T2 sequence (P05177 whole entry): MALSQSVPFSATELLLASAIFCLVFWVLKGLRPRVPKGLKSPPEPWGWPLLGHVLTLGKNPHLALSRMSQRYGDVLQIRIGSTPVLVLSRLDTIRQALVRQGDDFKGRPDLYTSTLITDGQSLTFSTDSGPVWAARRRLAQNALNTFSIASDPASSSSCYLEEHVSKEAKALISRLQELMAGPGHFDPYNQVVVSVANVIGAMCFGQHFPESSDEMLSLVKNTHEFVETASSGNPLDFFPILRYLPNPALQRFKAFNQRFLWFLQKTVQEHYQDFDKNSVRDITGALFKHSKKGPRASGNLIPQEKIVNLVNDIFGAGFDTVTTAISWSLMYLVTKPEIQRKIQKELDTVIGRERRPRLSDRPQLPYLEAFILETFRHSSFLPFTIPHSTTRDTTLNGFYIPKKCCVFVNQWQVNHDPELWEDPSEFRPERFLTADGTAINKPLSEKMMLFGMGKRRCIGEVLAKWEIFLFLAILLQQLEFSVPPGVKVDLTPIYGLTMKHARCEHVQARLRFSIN

[21] = biological target: Cytochrome P450 2C19 (Homo sapiens, UniProt P33261); test: Inhibition of CYP2C19; type: ADME
[22] = system: Rattus norvegicus; test: Toxicity in rat assessed as effect on locomotor activity at 15 mg/kg, po after 14 days; type: organism-based; design: dose 15 mg/kg, route oral; settings: in vivo, 336 h
[23] = species: Rattus norvegicus; test: Toxicity in rat after 14 days; type: organism-based; settings: in vivo, 336 h
[24] = Lipophilicity, log D at pH 7.4; type: physicochemical; settings: buffer
[25] = Binding affinity to sodium channel
[26] = Binding affinity to sigma opioid receptor
[27] = biological target: Cytochrome P450 2D6 (Homo sapiens, UniProt P10635); test: Inhibition of CYP2D6; type: ADME
[28] = system: Plasma; test: fCmax in Beagle dog plasma; type: ADME, organism-based, Canis lupus familiaris; settings: in vivo
[29] = Apparent permeability from apical to basolateral side of human Caco-2 cells at 10 uM; type: ADME, cell-based

T1 sequence (P08684 whole entry): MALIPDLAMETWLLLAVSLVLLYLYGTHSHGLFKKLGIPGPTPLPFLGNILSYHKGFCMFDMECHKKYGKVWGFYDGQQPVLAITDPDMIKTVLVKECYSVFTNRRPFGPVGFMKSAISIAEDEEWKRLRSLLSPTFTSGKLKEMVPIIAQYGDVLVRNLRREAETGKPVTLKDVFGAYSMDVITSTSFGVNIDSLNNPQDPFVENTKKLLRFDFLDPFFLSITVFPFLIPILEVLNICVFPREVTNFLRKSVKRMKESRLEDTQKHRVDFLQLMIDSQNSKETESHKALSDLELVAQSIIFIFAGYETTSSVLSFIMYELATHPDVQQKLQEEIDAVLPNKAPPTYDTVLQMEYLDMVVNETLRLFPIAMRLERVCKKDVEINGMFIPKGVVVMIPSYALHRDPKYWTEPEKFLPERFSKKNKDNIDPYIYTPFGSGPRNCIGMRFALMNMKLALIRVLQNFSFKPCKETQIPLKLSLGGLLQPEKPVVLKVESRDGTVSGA
Sequence of Voltage-gated inwardly rectifying potassium channel KCNH2 (Q12809 whole entry): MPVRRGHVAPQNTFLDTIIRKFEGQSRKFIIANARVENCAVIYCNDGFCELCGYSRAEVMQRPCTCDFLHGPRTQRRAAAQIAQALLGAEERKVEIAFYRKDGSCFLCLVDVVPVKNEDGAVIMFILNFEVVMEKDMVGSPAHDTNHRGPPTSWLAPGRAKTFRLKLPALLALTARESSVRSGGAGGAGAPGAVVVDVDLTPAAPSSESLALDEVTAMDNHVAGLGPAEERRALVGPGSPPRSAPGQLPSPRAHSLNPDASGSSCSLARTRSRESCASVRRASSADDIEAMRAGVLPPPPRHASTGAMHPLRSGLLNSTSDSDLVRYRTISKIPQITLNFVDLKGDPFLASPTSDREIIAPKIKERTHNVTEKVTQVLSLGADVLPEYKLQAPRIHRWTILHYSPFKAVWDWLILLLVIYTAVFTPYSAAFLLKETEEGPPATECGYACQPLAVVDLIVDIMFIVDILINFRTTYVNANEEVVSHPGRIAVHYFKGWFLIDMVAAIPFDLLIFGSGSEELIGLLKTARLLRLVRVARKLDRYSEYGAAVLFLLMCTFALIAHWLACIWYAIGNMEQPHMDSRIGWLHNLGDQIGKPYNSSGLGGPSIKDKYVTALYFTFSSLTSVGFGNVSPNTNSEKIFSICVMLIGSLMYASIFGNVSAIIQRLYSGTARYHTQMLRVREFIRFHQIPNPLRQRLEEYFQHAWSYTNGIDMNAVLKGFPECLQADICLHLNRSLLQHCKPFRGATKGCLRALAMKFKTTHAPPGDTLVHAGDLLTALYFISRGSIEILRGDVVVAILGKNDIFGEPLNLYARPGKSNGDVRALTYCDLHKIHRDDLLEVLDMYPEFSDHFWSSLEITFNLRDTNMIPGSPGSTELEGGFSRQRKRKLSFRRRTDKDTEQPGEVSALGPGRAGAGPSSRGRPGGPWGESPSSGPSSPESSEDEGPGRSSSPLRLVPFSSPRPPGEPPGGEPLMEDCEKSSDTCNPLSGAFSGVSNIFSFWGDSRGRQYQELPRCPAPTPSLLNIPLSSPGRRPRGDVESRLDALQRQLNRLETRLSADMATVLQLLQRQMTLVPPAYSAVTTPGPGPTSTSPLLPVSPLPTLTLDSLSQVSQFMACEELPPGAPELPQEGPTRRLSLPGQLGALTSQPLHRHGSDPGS
Sequence of Sodium-dependent noradrenaline transporter (P23975 whole entry): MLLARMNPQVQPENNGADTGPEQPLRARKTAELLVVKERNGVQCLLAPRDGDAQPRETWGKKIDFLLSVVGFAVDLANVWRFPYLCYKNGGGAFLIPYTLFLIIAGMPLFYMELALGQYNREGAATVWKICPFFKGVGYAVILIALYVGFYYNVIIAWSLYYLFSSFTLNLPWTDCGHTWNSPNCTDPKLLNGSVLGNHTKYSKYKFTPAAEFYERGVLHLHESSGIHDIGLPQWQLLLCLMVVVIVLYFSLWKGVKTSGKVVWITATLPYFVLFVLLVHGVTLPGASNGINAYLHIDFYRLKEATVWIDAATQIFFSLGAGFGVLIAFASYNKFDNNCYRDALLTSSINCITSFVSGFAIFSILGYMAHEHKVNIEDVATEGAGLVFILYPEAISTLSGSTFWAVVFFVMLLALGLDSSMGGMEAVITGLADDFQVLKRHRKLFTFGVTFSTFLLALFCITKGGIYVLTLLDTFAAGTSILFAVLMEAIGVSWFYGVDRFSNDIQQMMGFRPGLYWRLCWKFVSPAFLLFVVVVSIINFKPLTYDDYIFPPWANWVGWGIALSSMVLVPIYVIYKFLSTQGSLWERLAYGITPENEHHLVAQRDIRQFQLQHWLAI
Sequence of Sodium-dependent dopamine transporter (Q01959 whole entry): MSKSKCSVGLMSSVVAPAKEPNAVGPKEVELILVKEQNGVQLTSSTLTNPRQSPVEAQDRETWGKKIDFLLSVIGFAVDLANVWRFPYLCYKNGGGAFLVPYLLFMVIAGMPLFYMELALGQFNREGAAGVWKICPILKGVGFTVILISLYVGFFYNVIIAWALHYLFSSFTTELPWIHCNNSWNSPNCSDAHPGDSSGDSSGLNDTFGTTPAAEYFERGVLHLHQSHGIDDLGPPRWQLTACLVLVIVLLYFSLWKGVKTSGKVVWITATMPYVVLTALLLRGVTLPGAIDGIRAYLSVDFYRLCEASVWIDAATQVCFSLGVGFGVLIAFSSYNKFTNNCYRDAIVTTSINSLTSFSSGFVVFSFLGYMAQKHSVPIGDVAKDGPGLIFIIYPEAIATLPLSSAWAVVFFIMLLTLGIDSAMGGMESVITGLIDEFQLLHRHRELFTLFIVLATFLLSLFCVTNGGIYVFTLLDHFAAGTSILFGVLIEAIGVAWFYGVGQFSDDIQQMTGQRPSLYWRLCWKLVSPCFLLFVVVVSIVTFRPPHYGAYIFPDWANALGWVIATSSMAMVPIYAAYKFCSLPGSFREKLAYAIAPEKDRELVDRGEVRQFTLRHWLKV
Sequence of Sodium-dependent serotonin transporter (P31645 whole entry): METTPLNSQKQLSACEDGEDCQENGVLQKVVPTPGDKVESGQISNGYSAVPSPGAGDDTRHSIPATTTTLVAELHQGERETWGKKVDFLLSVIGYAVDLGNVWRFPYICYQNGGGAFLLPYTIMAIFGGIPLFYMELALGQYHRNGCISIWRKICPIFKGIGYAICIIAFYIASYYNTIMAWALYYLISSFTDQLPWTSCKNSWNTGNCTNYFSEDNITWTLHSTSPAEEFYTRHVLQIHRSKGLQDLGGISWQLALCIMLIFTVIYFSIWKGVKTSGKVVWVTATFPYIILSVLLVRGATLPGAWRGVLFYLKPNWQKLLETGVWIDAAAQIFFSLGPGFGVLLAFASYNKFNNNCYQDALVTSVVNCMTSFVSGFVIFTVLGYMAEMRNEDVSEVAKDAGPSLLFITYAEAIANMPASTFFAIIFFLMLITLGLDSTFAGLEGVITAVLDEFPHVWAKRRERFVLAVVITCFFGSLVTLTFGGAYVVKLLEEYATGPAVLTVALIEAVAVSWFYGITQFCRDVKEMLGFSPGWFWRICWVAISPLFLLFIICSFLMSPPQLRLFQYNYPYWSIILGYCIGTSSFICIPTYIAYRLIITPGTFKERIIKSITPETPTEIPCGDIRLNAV
Sequence of Kappa-type opioid receptor (P41145 whole entry): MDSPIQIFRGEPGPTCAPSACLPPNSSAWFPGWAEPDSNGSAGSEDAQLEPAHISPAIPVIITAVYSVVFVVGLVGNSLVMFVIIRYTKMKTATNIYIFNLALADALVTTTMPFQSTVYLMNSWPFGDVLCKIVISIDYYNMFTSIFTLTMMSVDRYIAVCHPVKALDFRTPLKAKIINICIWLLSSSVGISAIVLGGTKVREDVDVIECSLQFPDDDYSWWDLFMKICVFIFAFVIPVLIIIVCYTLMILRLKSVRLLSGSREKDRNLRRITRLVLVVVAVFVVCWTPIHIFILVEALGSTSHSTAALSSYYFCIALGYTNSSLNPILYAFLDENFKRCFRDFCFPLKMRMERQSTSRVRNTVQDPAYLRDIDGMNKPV
Sequence of Cytochrome P450 2C9 (P11712 whole entry): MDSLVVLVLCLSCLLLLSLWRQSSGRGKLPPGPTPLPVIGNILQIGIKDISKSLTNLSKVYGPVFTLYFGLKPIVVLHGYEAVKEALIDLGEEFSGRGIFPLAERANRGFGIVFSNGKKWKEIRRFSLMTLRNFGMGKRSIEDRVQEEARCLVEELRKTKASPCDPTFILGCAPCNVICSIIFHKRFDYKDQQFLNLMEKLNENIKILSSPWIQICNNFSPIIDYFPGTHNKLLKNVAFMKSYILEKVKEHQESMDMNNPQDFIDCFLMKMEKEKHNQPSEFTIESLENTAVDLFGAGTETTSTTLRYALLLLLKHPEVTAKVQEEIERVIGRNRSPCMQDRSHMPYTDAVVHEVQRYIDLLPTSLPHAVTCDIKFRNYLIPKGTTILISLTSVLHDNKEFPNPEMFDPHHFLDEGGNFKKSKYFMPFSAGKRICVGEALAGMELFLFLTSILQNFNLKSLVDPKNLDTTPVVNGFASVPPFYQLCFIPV
Sequence of Cytochrome P450 2D6 (P10635 whole entry): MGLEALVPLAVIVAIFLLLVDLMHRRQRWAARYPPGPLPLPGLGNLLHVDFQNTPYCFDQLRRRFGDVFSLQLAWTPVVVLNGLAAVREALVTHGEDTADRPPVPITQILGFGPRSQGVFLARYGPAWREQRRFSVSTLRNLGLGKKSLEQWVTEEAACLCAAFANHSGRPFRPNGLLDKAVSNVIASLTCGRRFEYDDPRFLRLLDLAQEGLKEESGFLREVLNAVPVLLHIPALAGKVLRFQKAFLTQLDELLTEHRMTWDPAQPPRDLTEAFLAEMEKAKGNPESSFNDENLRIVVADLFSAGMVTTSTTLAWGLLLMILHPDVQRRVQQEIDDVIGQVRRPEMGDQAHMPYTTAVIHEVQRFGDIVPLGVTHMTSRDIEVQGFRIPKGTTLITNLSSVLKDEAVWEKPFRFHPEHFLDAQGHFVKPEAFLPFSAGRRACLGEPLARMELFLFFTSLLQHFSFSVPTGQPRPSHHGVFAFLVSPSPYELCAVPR

CC(C)C(=O)N(Cc1cccc(Cl)c1Cl)[C@H]1CCNC1
Papp B→A [1]: 64 ×10⁻⁶ cm/s | Kp [2]: 0.1 | Ki [3]: 9 nM | Ki [4]: 52 nM | microsomal CLint [5]: < 7.6 µL/min/mg | Ki [6]: 640 nM | Papp A→B [7]: 15 ×10⁻⁶ cm/s | efflux ratio [8]: 4.3

Cc1c(Cl)cccc1C(=O)N(CC(C)C)[C@H]1CCNC1
IC50 [9]: 52400 nM | Ki [3]: 3 nM | Ki [4]: 29 nM | microsomal CLint [5]: 26 µL/min/mg | Ki [6]: 516 nM

CC(C)(C)CN(C(=O)c1cccc(Cl)c1Cl)[C@H]1CCNC1
Ki [3]: 4 nM | Ki [4]: 13 nM | Ki [6]: 273 nM

Cc1c(F)cccc1C(=O)N(CC(C)C)[C@H]1CCNC1
Ki [3]: 13 nM | Ki [4]: 69 nM | microsomal CLint [5]: 21 µL/min/mg | Ki [6]: 1610 nM

CCN(C(=O)c1cccc(Cl)c1Cl)[C@H]1CCNC1
IC50 [9]: > 20000 nM | Ki [3]: 29 nM | Ki [4]: 217 nM | microsomal CLint [5]: < 13 µL/min/mg | Ki [6]: 1090 nM

CC(C)CN(C(=O)c1ccc(Cl)cc1Cl)[C@H]1CCNC1
Ki [3]: 3 nM | Ki [4]: 37 nM | microsomal CLint [5]: 26 µL/min/mg | Ki [6]: 2400 nM

CC(C)CN(C(=O)c1cccc(Cl)c1Cl)[C@H]1CCNC1
Papp B→A [1]: 43 ×10⁻⁶ cm/s | IC50 [10]: > 30000 nM | Activity [11]: Non-toxic | IC50 [12]: 5800 nM | pKa [13]: 10 | IC50 [14]: > 30000 nM | IC50 [9]: 20000 nM | IC50 [15]: > 30000 nM | Activity [16]: 35% | IC50 [17]: > 30000 nM | Papp B→A at 10 µM [18]: 26 ×10⁻⁶ cm/s | Ki [3]: 6 nM | hepatocyte CLint [19]: 3 µL/min/1e6 cells | IC50 [20]: > 30000 nM | IC50 [21]: > 30000 nM | Ki [4]: 21 nM | microsomal CLint [5]: 11 µL/min/mg | Activity [22]: Non-toxic | Ki [6]: 544 nM | Activity [23]: Non-toxic | logD [24]: 0.6 | IC50 [25]: 3600 nM | IC50 [26]: 5100 nM | IC50 [27]: > 30000 nM | Papp A→B [7]: 16 ×10⁻⁶ cm/s | fCmax [28]: 5 nM | Papp A→B at 10 µM [29]: 12 ×10⁻⁶ cm/s | efflux ratio [8]: 2.7

O=C(c1cccc(Cl)c1Cl)N(c1ccccc1)[C@H]1CCNC1
IC50 [9]: 7920 nM | Ki [3]: 3 nM | Ki [4]: 11 nM | microsomal CLint [5]: < 25 µL/min/mg | Ki [6]: 501 nM

CC(C)CN(C(=O)c1ccc(F)cc1Cl)[C@H]1CCNC1
Ki [3]: 7 nM | Ki [4]: 263 nM | microsomal CLint [5]: 20 µL/min/mg | Ki [6]: 2540 nM

CCC(CC)N(C(=O)c1cccc(Cl)c1Cl)[C@H]1CCNC1
IC50 [9]: 7740 nM | Ki [3]: 20 nM | Ki [4]: 37 nM | microsomal CLint [5]: 34 µL/min/mg | Ki [6]: 2600 nM

CC(C)CN(C(=O)c1ccccc1C(C)C)[C@H]1CCNC1
IC50 [9]: 12900 nM | Ki [3]: 1320 nM | Ki [4]: 65 nM | microsomal CLint [5]: < 7 µL/min/mg | Ki [6]: 3590 nM

O=C(c1cccc(Cl)c1Cl)N(C1CCCC1)[C@H]1CCNC1
Papp B→A [1]: 64 ×10⁻⁶ cm/s | Ki [3]: 6 nM | Ki [4]: 11 nM | microsomal CLint [5]: < 7 µL/min/mg | Ki [6]: 983 nM | Papp A→B [7]: 10 ×10⁻⁶ cm/s

CC(C)CN(C(=O)c1cc(Cl)ccc1Cl)[C@H]1CCNC1
IC50 [9]: 19800 nM | Ki [3]: 54 nM | Ki [4]: 198 nM | microsomal CLint [5]: 29 µL/min/mg | Ki [6]: 2430 nM

CC(C)CN(C(=O)c1cccc(Cl)c1Cl)[C@@H]1CCNC1
Ki [3]: 13 nM | Ki [4]: 169 nM | Ki [6]: 3090 nM

CC(C)CN(C(=O)c1cccc(F)c1Cl)[C@H]1CCNC1
Ki [3]: 15 nM | Ki [4]: 67 nM | microsomal CLint [5]: 20 µL/min/mg | Ki [6]: 2370 nM

CC(C)CN(C(=O)c1cc(Cl)cc(Cl)c1)[C@H]1CCNC1
IC50 [9]: > 10000 nM | Ki [3]: 6 nM | Ki [4]: 43 nM | Ki [6]: 3070 nM

CC(C)CN(C(=O)c1cccc(Cl)c1)[C@H]1CCNC1
Ki [3]: 19 nM | Ki [4]: 135 nM | microsomal CLint [5]: 23.5 µL/min/mg | Ki [6]: 1330 nM

O=C(c1cccc(Cl)c1Cl)N(C1=CCOC=C1)[C@H]1CCNC1
Papp B→A [1]: 20 ×10⁻⁶ cm/s | IC50 [9]: > 40000 nM | Ki [3]: 6 nM | Ki [4]: 10 nM | microsomal CLint [5]: 13 µL/min/mg | Ki [6]: 945 nM | Papp A→B [7]: 1 ×10⁻⁶ cm/s | efflux ratio [8]: 20

O=C(c1cccc(Cl)c1Cl)N(CC(F)(F)F)[C@H]1CCNC1
Ki [3]: 39 nM | Ki [4]: 95 nM | microsomal CLint [5]: < 8 µL/min/mg | Ki [6]: 3730 nM

CC(C)CN(C(=O)c1cccc(F)c1C(F)(F)F)[C@H]1CCNC1
IC50 [9]: > 10000 nM | Ki [3]: 25 nM | Ki [4]: 26 nM

CC(C)CN(C(=O)c1ccc(Cl)c(Cl)c1)[C@H]1CCNC1
Ki [3]: 4 nM | Ki [4]: 50 nM | microsomal CLint [5]: 36 µL/min/mg | Ki [6]: 430 nM

O=C(c1cccc(Cl)c1Cl)N(CCC1CC1)[C@H]1CCNC1
IC50 [9]: 7140 nM | Ki [3]: 15 nM | Ki [4]: 24 nM | microsomal CLint [5]: 26 µL/min/mg | Ki [6]: 404 nM

CC(C)CN(C(=O)c1cccc(C(F)(F)F)c1Cl)[C@H]1CCNC1
Ki [3]: 11 nM | Ki [4]: 103 nM | Ki [6]: 2070 nM

CCCN(C(=O)c1cccc(Cl)c1Cl)[C@H]1CCNC1
IC50 [9]: > 18600 nM | Ki [3]: 16 nM | Ki [4]: 36 nM | microsomal CLint [5]: < 7 µL/min/mg | Ki [6]: 630 nM

CC(C)CN(C(=O)c1cccc(Cl)c1F)[C@H]1CCNC1
IC50 [9]: > 10000 nM | Ki [3]: 10 nM | Ki [4]: 139 nM | microsomal CLint [5]: 26 µL/min/mg | Ki [6]: 2560 nM
